We go through one molecule from patent publication US8937065B2, “Compositions and methods for modulating a kinase” (Clevexel Pharma, priority 2011, dated 2015).

The structures appear in SMILES notation. In brackets after ≈: the same amount, converted by molar mass.

The nature of one data set: Solubility, turbidity. Type of data set: physicochemical. Particulars: kinetic from dmso stock.
A further data set is described as follows: Protein binding. It is filed as in vitro ADME.
The subject of another data set is Namalwa cells. Put plainly: Proliferation of Namalwa cells (Cell Titer-Glo). Particulars: Homo sapiens, B-cell, outcome-based, read-out: IC50 Proliferation Namalwa cells (Burkitt's Lymphoma). For orientation: In ATP-based viability assays light output follows the ATP content of the culture.
Another data set in a line: Mouse PK (PO). Particulars: in vivo.
The test system of data set [1] is IL-2-stimulated STAT5 activity in CTLL-2 cells. As to the kind of experiment: IL-2-stimulated STAT5 activity in CTLL-2 cells (Irf1-bla CTLL-2). It is filed as cell-based. Particulars: Mus musculus, mCTLL-2, IL-2 stimulated, read-out: IC50 T cells mechanism-based: mCTLL-2 IL-2 Stimulated STAT5 activity. On the procedure: Mechanism-based inhibition assays using compound 7A (Table 1) were performed using GeneBLAzer® Technology (Invitrogen Corporation), according to manufacturer specifications. Briefly, GeneBLAzer® Technology uses a mammalian-optimized Beta-lactamase reporter gene (bla) combined with a FRET-enabled substrate to provide reliable and sensitive detection in intact cells. Cells were loaded with an engineered fluorescent substrate containing two fluorophores, coumarin and fluorescein. Without bla expression, the substrate molecule remains intact. In this state, excitation of the coumarin results in fluorescence resonance energy transfer to the fluorescein moiety and emission of green light. […] Excitation of the coumarin in the presence of Beta-lactamase activity results in a blue fluorescence signal. […]
An activator assay screen was run to obtain the EC80 concentration of the known activator to add in step 3. • 1. […] 4 μL of the EC80 concentration of activator, as determined in an Activator assay, was added to all wells containing compound and known inhibitor to bring the final assay volume to 40 μL. • 4. […] The assay plate was read on a fluorescence plate reader (Tecan Safire) and the data is analyzed. […]
Irf1-bla CTLL-2 cells were thawed and prepared as described above for the Activator Screen. […] The plate was read on a fluorescence plate reader.

The next data set concerns RL cells. As to the kind of experiment: Proliferation of RL cells (Cell Titer-Glo). Conditions: Homo sapiens, B cells, outcome-based, read-out: IC50 Proliferation RL cells (Non-Hodjkin lymphoma).
The subject of another data set is JAK2 pathway, TF-1 cells. Put plainly: JAK2/STAT5-irf1-bla TF1 screen. Particulars: Homo sapiens, read-out: IC50 Cell-based selectivity: JAK2 pathway TF-1 cells. On the procedure:
Mechanism-based inhibition assays using compound 7A (Table 1) were performed using GeneBLAzer® Technology (Invitrogen Corporation), according to manufacturer specifications. Briefly, GeneBLAzer® Technology uses a mammalian-optimized Beta-lactamase reporter gene (bla) combined with a FRET-enabled substrate to provide reliable and sensitive detection in intact cells. Cells were loaded with an engineered fluorescent substrate containing two fluorophores, coumarin and fluorescein. Without bla expression, the substrate molecule remains intact. In this state, excitation of the coumarin results in fluorescence resonance energy transfer to the fluorescein moiety and emission of green light. But when bla is expressed, the substrate is cleaved, the fluorophores are separated, and energy transfer is disrupted. Excitation of the coumarin in the presence of Beta-lactamase activity results in a blue fluorescence signal. […]
General Activator Assay Protocol • 1. […] The assay, plate was read on a fluorescence plate reader (Tecan Safire^2) and the data is analyzed.
irf1-bla TF1 cells were thawed and resuspended in Assay Media (OPTI-MEM, 0.5% dialyzed FBS, 0.1 mM NEAA, 1 mM Sodium Pyruvate, 100 U/mL/100 μg/mL Pen/Strep) to a concentration of 1,562,500 cells/mL. […] The plate is read on a fluorescence plate reader.

One may read the solubility as the dissolved amount per volume that the medium holds. Read a low solubility as a poorly soluble substance. A word on the fraction unbound: it is the share of the substance not bound to proteins or other matrix. Molecule `O=C(CN1CCOCC1)Nc1cccc(-c2nc(-c3c[nH]c(C(=O)N4CCCC4)c3)cs2)c1` [7A, 2-morpholino-N-(3-(4-(5-(pyrrolidine-1-carbonyl)-1H-pyrrol-3-yl)thiazol-2-yl)phenyl)acetamide] gave a solubility in “Solubility, turbidity” of 60 to 80 µM (≈ 27.9 to 37.2 µg/mL). The fraction unbound in the data set “Protein binding” was 0.02. For the same molecule, the IC50 was found to be 28 µM in the data set on Namalwa cells; 6.2 µM in data set [1]; 26 µM with RL cells; 49.5 µM in the data set with JAK2 pathway, TF-1 cells. In “Mouse PK (PO)” (read-out: Mouse PK (PO) % F), the bioavailability came to 88%. Besides, the half-life in the data set “Mouse PK (PO)” (read-out: Mouse PK (PO) T½ (converted)) was 3.2 h.
